These results are taken from patent US9040528B2, “Chemical compounds 542” (AstraZeneca AB, priority 2008, dated 2015).

Each structure is given as a SMILES string.

In one assay the target is Escherichia coli DNA gyrase A/B tetramer (Escherichia coli (strain K12), UniProt P0AES4+P0AES6). Nature of the assay: DNA gyrase supercoiling activity fluorescence polarisation assay. Format: biochemical.
Conditions: not given
Summed up: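 Supercoiling reactions quenched with 40 nM 5′-BODIPY-FL triplex-forming oligonucleotide probe in pH 3.5 NaCl/sodium acetate buffer; after 60 min, fluorescence anisotropy read (ex 485/em 535 nm). IC50 by nonlinear regression, normalised to 0.8% DMSO (100% activity) and 5 μM ciprofloxacin (0% activity).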
For orientation: Fluorescence polarisation rises when a labelled molecule tumbles more slowly, as on binding a larger partner.
As a reminder, the IC50 is the concentration that gives 50% inhibition. The molecule `C[C@@H]1CN2c3c(cc4c(OC(=O)OC(C)(C)C)noc4c3F)CC3(C(=O)NC(=O)NC3=O)[C@H]2[C@H](C)O1` (relative stereo) [Example 102, tert-butyl(2R,4S,4aS)-rel-11-fluoro-2,4-dimethyl-2′,4′,6′-trioxo-1,1′,2,3′,4,4′,4a,6′-octahydro-2′H,6H-spiro[isoxazolo[4,5-g][1,4]oxazino[4,3-a]quinoline-5,5′-pyrimidin]-8-yl carbonate] displayed a 50% inhibitory concentration (IC50) of 2700 nM.

The same assay, now with this note: 5 nM enzyme, relaxed plasmid, 0.3 mM ATP, ambient temperature; read-out: E. coli DNA gyrase supercoiling IC50.
With `C[C@@H]1CN2c3c(cc4c(-c5ncc(C(=O)N(C)C)s5)noc4c3F)CC3(C(=O)NC(=O)NC3=O)[C@H]2[C@H](C)O1` (relative stereo) [Example 87, 2-[(2R,4S,4aS)-rel-11-fluoro-2,4-dimethyl-2′,4′,6′-trioxo-1,1′,2,3′,4,4′,4a,6′-octahydro-2′H,6H-spiro[1,4-oxazino[4,3-a][1,2]oxazolo[4,5-g]quinoline-5,5′-pyrimidin]-8-yl]-N,N-dimethyl-1,3-thiazole-5-carboxamide], the IC50 was 6700 nM. Still for that read-out and setting: the result for `C[C@@H]1CN2c3c(cc4c(-c5scnc5C#N)noc4c3F)CC3(C(=O)NC(=O)NC3=O)[C@H]2[C@H](C)O1` (relative stereo) [Example 88, 5-[(2R,4S,4aS)-rel-11-fluoro-2,4-dimethyl-2′,4′,6′-trioxo-1,1′,2,3′,4,4′,4a,6′-octahydro-2′H,6H-spiro[1,4-oxazino[4,3-a][1,2]oxazolo[4,5-g]quinoline-5,5′-pyrimidin]-8-yl]-1,3-thiazole-4-carbonitrile] reads 1200 nM; that for `C[C@@H]1CN2c3c(cc4c(-c5nccn5C)noc4c3Cl)CC3(C(=O)NC(=O)NC3=O)[C@H]2[C@H](C)O1` (relative stereo) [Example 89, (2R,4S,4aS)-rel-11-chloro-2,4-dimethyl-8-(1-methyl-1H-imidazol-2-yl)-1,2,4,4a-tetrahydro-2′H,6H-spiro[1,4-oxazino[4,3-a][1,2]oxazolo[4,5-g]quinoline-5,5′-pyrimidine]-2′,4′,6′(1′H,3′H)-trione], 1300 nM. On the same count and under the same terms, for `Cc1ccc(-c2noc3c(F)c4c(cc23)CC2(C(=O)NC(=O)NC2=O)[C@H]2[C@H](C)O[C@H](C)CN42)cn1` (relative stereo) [Example 91, (2R,4S,4aS)-rel-11-fluoro-2,4-dimethyl-8-(6-methylpyridin-3-yl)-2,4,4a,6-tetrahydro-1H,1′H-spiro[isoxazolo[4,5-g][1,4]oxazino[4,3-a]quinoline-5,5′-pyrimidine]-2′,4′,6′(3′H)-trione] the value was 1900 nM. On the same count and under the same terms, the result for `C[C@@H]1CN2c3c(cc4c(C(=O)N5CC(F)(F)C5)noc4c3F)CC3(C(=O)NC(=O)NC3=O)[C@H]2[C@H](C)O1` (relative stereo) [Example 95, (2R,4S,4aS)-rel-8-(3,3-difluoroazetidine-1-carbonyl)-11-fluoro-2,4-dimethyl-2,4,4a,6-tetrahydro-1H,1′H-spiro[isoxazolo[4,5-g][1,4]oxazino[4,3-a]quinoline-5,5′-pyrimidine]-2′,4′,6′(3′H)-trione] reads 300 nM; that for `C[C@@H]1CN2c3c(cc4c(-c5ccco5)noc4c3F)CC3(C(=O)NC(=O)NC3=O)[C@H]2[C@H](C)O1` (relative stereo) [Example 97, (2R,4S,4aS)-rel-11-fluoro-8-(furan-2-yl)-2,4-dimethyl-2,4,4a,6-tetrahydro-1H,1′H-spiro[isoxazolo[4,5-g][1,4]oxazino[4,3-a]quinoline-5,5′-pyrimidine]-2′,4′,6′(3′H)-trione], 700 nM; that for `C[C@@H]1CN2c3c(cc4c(-c5cncs5)noc4c3F)CC3(C(=O)NC(=O)NC3=O)[C@H]2[C@H](C)O1` (relative stereo) [Example 98, (2R,4S,4aS)-rel-11-fluoro-2,4-dimethyl-8-(thiazol-5-yl)-2,4,4a,6-tetrahydro-1H,1′H-spiro[isoxazolo[4,5-g][1,4]oxazino[4,3-a]quinoline-5,5′-pyrimidine]-2′,4′,6′(3′H)-trione], 400 nM. Regarding `C[C@@H]1CN2c3c(cc4c(-c5ccccc5F)noc4c3F)CC3(C(=O)NC(=O)NC3=O)[C@H]2[C@H](C)O1` (relative stereo) [Example 99, (2R,4S,4aS)-rel-11-fluoro-8-(2-fluorophenyl)-2,4-dimethyl-2,4,4a,6-tetrahydro-1H,1′H-spiro[isoxazolo[4,5-g][1,4]oxazino[4,3-a]quinoline-5,5′-pyrimidine]-2′,4′,6′(3′H)-trione], the IC50 was determined as 400 nM. Still for that read-out and setting: for `C[C@@H]1CN2c3c(cc4c(C5CCOCC5)noc4c3F)CC3(C(=O)NC(=O)NC3=O)[C@H]2[C@H](C)O1` (relative stereo) [Example 100, (2R,4S,4aS)-rel-11-fluoro-2,4-dimethyl-8-(tetrahydro-2H-pyran-4-yl)-2,4,4a,6-tetrahydro-1H,1′H-spiro[isoxazolo[4,5-g][1,4]oxazino[4,3-a]quinoline-5,5′-pyrimidine]-2′,4′,6′(3′H)-trione] the value was 4100 nM; for `Cc1c2c(cc3c(-c4cnccn4)noc13)CC1(C(=O)NC(=O)NC1=O)[C@H]1[C@H](C)O[C@H](C)CN21` (relative stereo) [Example 101, (2R,4S,4aS)-rel-2,4,11-trimethyl-8-(pyrazin-2-yl)-1,2,4,4a-tetrahydro-2′H,6H-spiro[1,4-oxazino[4,3-a][1,2]oxazolo[4,5-g]quinoline-5,5′-pyrimidine]-2′,4′,6′(1′H,3′H)-trione], 1400 nM. On the same count and under the same terms, for `COC[C@@H]1O[C@H](C)CN2c3c(cc4c(C)noc4c3F)CC3(C(=O)NC(=O)NC3=O)[C@@H]12` (relative stereo) [Example 105, (2R,4R,4aS)-rel-11-fluoro-4-(methoxymethyl)-2,8-dimethyl-1,2,4,4a-tetrahydro-2′H,6H-spiro[1,4-oxazino[4,3-a][1,2]oxazolo[4,5-g]quinoline-5,5′-pyrimidine]-2′,4′,6′(1′H,3′H)-trione] the value was 700 nM; for `COC[C@@H]1CN2c3c(cc4c(C)noc4c3F)CC3(C(=O)NC(=O)NC3=O)[C@H]2[C@H](C)O1` (relative stereo) [Example 106, (2S,4S,4aS)-rel-11-fluoro-2-(methoxymethyl)-4,8-dimethyl-1,2,4,4a-tetrahydro-2′H,6H-spiro[1,4-oxazino[4,3-a][1,2]oxazolo[4,5-g]quinoline-5,5′-pyrimidine]-2′,4′,6′(1′H,3′H)-trione], 1100 nM; for `C[C@@H]1CN2c3c(nc4c(-c5ccccn5)noc4c3Cl)CC3(C(=O)NC(=O)NC3=O)[C@H]2[C@H](C)O1` (relative stereo) [Example 107, (2R,4S,4aS)-rel-11-chloro-2,4-dimethyl-8-(pyridyin-2-yl)-2,4,4a,6-tetrahydro-1H,1′H-spiro[isoxazolo[4,5-g][1,4]oxazino[4,3-a][1,5]naphthyridine-5,5′-pyrimidine]-2′,4′,6′(3′H)-trione], 1400 nM. Still for that read-out and setting: the result for `C[C@@H]1CN2c3c(nc4c(-c5ccncc5)noc4c3Cl)CC3(C(=O)NC(=O)NC3=O)[C@H]2[C@H](C)O1` (relative stereo) [Example 108, (2R,4S,4aS)-rel-11-chloro-2,4-dimethyl-8-(pyridyin-4-yl)-2,4,4a,6-tetrahydro-1H,1′H-spiro[isoxazolo[4,5-g][1,4]oxazino[4,3-a][1,5]naphthyridine-5,5′-pyrimidine]-2′,4′,6′(3′H)-trione] reads 800 nM.
